# Assays:
# HCAECs = assay: Microarray gene expression analysis (HCAECs); format: cell-based, human; conditions: 24 h
# Experimental: Confluent plates (100×20 mm polystyrene, tissue culture-treated petri plates coated with 0.1% gelatin, 75% confluent) of HUVECs and HCAECs (four plates for HUVECs, n=2, and six plates for HCAECs, n=3) were chosen for the microarray experiments. Half of the plates received complete growth medium (10% fetal bovine serum with endothelial mitogen) containing vehicle control (0.1% DMSO), and the remaining plates received complete growth medium containing 100 μM SsnB. The plates were incubated for 24 h to allow SsnB to have an effect on cellular gene expression. Following incubation, RNA isolation was completed with the RNeasy Mini kit from Qiagen. The cells were lysed, and RNA was isolated by using the RNeasy spin columns and following the protocol provided by Qiagen. Purified RNA was sent to the Medical University of South Carolina Proteogenomics Facility for microarray analysis. The GeneChip Human Genome U133 Plus 2.0 Array was utilized to track changes in gene expression due to SsnB treatment. Complete data was uploaded to the NCBI Gene Expression Omnibus database (accession number GSE44598).
# (§1) Microarray data analysis, including data normalization (robust multi-array average), identification of differentially expressed genes (comparative analyses with dChip software), and heat map construction, was carried out to determine how SsnB affects gene expression and affected pathways (n=2 for HUVECs and n=3 for HCAECs). After a careful analysis of the microarray data, several key genes were chosen for qRT-PCR to verify the gene expression results. The genes were chosen based on the following criteria: fold change ≧2, p<0.05, unpaired t-test with a false discovery rate approximating 0%, appearing in both data sets (HUVECs and HCAECs), and gene function relating to cell proliferation and/or angiogenesis. For qRT-PCR, the expression levels were normalized to the housekeeping gene GAPDH, and RNA levels were compared between groups with the ΔΔCt method.
# HUVECs [1] = assay: Transwell insert cell migration assay (VEGF-induced); format: cell-based, human; conditions: 8 h
# Experimental: The cell invasion assay was performed with a Transwell insert system (6.5 mm diameter inserts with 8.0 μm pores in a polycarbonate membrane situated in wells of 24 well polystrene, tissue culture treated plates, Corning Incorporated, Corning, N.Y.). The Transwell inserts were coated with 0.1% gelatin for 30 min and incubated in low serum medium for 1 h. Cultured HUVECs were trypsinized and then resuspended in low serum medium (0.5% fetal bovine serum without endothelial cell mitogen), and added at 50,000 cells per insert. The cells were allowed to adhere to the inserts for 30 min. Next, various concentrations of SsnB (0.0001, 0.001, 0.01, 0.1, 1, 10, and 100 μM) or vehicle control (0.1% DMSO) were added to the Transwell inserts. After 30 min, the medium in the lower chamber for the experimental groups was replaced with low serum medium containing 10 ng/ml VEGF and thus establishing a chemoattractant gradient between the top insert and lower chamber. For the negative control group, the medium was replaced with low serum medium (0.5% fetal bovine serum). The plates were incubated for 8 h at 37° C. During the incubation, the cells migrated through the pores of the Transwell insert towards the lower chamber. […] Cells were counted from four random fields observed with a 10× objective lens. […]
# HUVECs [2] = assay: Cytotoxicity on HUVECs; format: cell-based, human; conditions: concentrations up to 100 μM
# HUVECs [3] = assay: Cell cycle analysis, propidium iodide flow cytometry; format: cell-based, human
# Experimental: Cell cycle analysis was performed using propidium iodide staining and flow cytometry. HUVECs (approximately 75% confluent) cultured in 6 well polystyrene culture plates coated with 0.1% gelatin were serum starved for 24 hours in low serum medium containing 0.5% fetal bovine serum and no endothelial cell mitogen to synchronize the cells in the G1/S phase. After 24 hours, the low serum medium was replaced with treatments of either 100 μM SsnB or vehicle control (0.1% DMSO) diluted in complete growth medium (10% fetal bovine serum with endothelial cell mitogen) in triplicate. The treated cells were incubated for 24, 30, and 36 hours. After incubation, the cells were trypsinized, transferred to 5 ml polysytrene round bottom tubes (12×75 mm), and centrifuged. The medium was aspirated, and the cells were washed with PBS. After fixing the cells with ice-cold 70% ethanol for 15 min, the cells were centrifuged and stained with propidium iodide for 30 min. The samples were then analyzed with a flow cytometer (Beckman Coulter FC500). The unstained and stained cell groups were used to calibrate the settings on the flow cytometer. The data were collected and analyzed with ModFit software.
# monocytic THP-1 cells = assay: Cytotoxicity on monocytic THP-1 cells; format: cell-based; conditions: concentrations up to 100 μM
# HUVECs [4] = assay: Real time RT-PCR gene expression (HUVECs); format: cell-based, human; conditions: 24 h
# Experimental: After a careful analysis of the microarray data, key genes (CDC6, CCNE2, KITLG, ALDH3A1, CCNB1, CDC2, HMMR, DIAPH3, ANLN, and CDKN3) were chosen for quantitative real-time PCR (qRT-PCR) to verify the gene expression results. HCAECs and HUVECs were exposed to SsnB or vehicle control for 24 h (as previously described in the microarray section). For RT-PCR, RNA was isolated from the cells with the RNeasy Mini kit as described previously. After forward and reverse primer kits (Qiagen, Valencia, Calif.) were selected, the RNA was amplified. The one-step RT-PCR reactions were completed on the BioRad iCycler thermal cycler system in the Instrumentation Resource Facility at the USC School of Medicine. The expression levels were normalized, and RNA levels were quantified.
# as §1
# [5] = synchronized HUVECs, 100 μM SsnB, 24, 30 and 36 hours, vs vehicle control
# [6] = SsnB vs vehicle control, normalized to GAPDH
structure (smiles),measurement,setting,value
"O=c1occ2c3c(ccc(O)c13)Oc1ccc(O)cc1-2 [SsnB, Sparstolonin B]",ALDH3A1 Microarray Fold change value,HCAECs; 100 μM SsnB vs vehicle control,8.8
same,ANLN Microarray Fold change value,HCAECs; 100 μM SsnB vs vehicle control,0.11
same,CCNB1 Microarray Fold change value,HCAECs; 100 μM SsnB vs vehicle control,0.16
same,CCNE2 Microarray Fold change value,HCAECs; 100 μM SsnB vs vehicle control,0.38
same,CDC2 Microarray Fold change value,HCAECs; 100 μM SsnB vs vehicle control,0.20
same,CDC6 Microarray Fold change value,HCAECs; 100 μM SsnB vs vehicle control,0.18
same,CDKN3 Microarray Fold change value,HCAECs; 100 μM SsnB vs vehicle control,0.18
same,DIAPH3 Microarray Fold change value,HCAECs; 100 μM SsnB vs vehicle control,0.38
same,HMMR Microarray Fold change value,HCAECs; 100 μM SsnB vs vehicle control,0.20
same,KITLG Microarray Fold change value,HCAECs; 100 μM SsnB vs vehicle control,2.1
same,number of differentially expressed genes in response to SsnB exposure,"HCAECs; 100 μM, fold change ≧2, p<0.05",356 genes
same,"VEGF-induced cell migration inhibition, high concentrations",HUVECs [1]; between 0.1 and 100 μM,leveled off
same,VEGF-induced cell migration,"HUVECs [1]; concentrations between 0.0001 and 0.1 μM, p<0.05",dose-dependent inhibition
same,cytotoxic effects,HUVECs [2],does not exhibit cytotoxic effects
same,G2/M blockage,HUVECs [3]; non-synchronized (no serum starvation) HUVECs,G2/M blockage was observed
same,percentage of cells in the G1 phase,HUVECs [3]; [5],increase
same,percentage of cells in the S phase,HUVECs [3]; [5],decrease
same,cytotoxic effects,monocytic THP-1 cells,does not exhibit cytotoxic effects
same,ALDH3A1 expression (qRT-PCR),HUVECs [4],1280 % of controls
same,KITLG expression (qRT-PCR),HUVECs [4],400 % of controls
same,ALDH3A1 PCR 2^ΔΔCt value,HUVECs [4]; [6],12.8
same,ANLN PCR 2^ΔΔCt value,HUVECs [4]; [6],0.20
same,CCNB1 PCR 2^ΔΔCt value,HUVECs [4]; [6],0.40
same,CCNE2 PCR 2^ΔΔCt value,HUVECs [4]; [6],0.64
same,CDC2 PCR 2^ΔΔCt value,HUVECs [4]; [6],0.14
same,CDC6 PCR 2^ΔΔCt value,HUVECs [4]; [6],0.35
same,CDKN3 PCR 2^ΔΔCt value,HUVECs [4]; [6],0.18
same,DIAPH3 PCR 2^ΔΔCt value,HUVECs [4]; [6],0.19
same,HMMR PCR 2^ΔΔCt value,HUVECs [4]; [6],0.24
same,KITLG PCR 2^ΔΔCt value,HUVECs [4]; [6],4.0

# — patent US20140303242A1, “Sparstolonin B Based Pharmaceutical Agent to Treat Pathological Angiogensis” (University of South Carolina, priority 2013, published 2014)
